The text below walks through data of US7112585B2, “Pyrimidine derivatives as corticotropin releasing factor inhibitors” (Bristol-Myers Squibb Company, priority 2003, dated 2006).

Data set [1] addresses T1, cloned human CRF-R1 receptors (Homo sapiens, UniProt P34998).
T1 construct: the coding region was amplifies by PCR from start to stop codons; expressed in transfected cells; host or cells: 293EBNA (HEK 293 EBNA-1) cells, episomal vector phchCRFR, hygromycin-selected pool; membranes
T1 sequence (P34998 24-415): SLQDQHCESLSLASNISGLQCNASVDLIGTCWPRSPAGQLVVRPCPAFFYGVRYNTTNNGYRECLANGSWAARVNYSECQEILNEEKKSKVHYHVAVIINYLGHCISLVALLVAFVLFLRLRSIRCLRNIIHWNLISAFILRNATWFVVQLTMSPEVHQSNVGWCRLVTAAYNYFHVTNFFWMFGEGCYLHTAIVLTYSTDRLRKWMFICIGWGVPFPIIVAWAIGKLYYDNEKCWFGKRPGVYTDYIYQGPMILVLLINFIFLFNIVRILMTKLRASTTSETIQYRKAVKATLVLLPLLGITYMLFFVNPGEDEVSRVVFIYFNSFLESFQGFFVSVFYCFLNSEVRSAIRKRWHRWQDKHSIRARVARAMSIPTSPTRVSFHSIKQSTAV
Nature of the data set: CRF-R1 Receptor Binding Assay (inhibition of 125I-ovine-CRF binding to cell membranes). Further details: key to activity: a: Ki≦100 nM; b: 100 nM<Ki≦500 nM; c: 500 nM<Ki≦5,000 nM; activity reported in percent inhibition at 10 μM. Conditions: CRF assays; class d = activity only as percent inhibition at 10 μM (value not given). An excerpt:
CRF-R1 Receptor Binding Assay for the Evaluation of Biological Activity
The following is a description of the isolation of cell membranes containing cloned human CRF-R1 receptors for use in a standard binding assay as well as a description of the assay itself.
Messenger RNA was isolated from human hippocampus. The mRNA was isolated from human hippocampus. The mRNA was reverse transcribed using oligo (dt) 12–18 and the coding region was amplifies by PCR from start to stop codons. The resulting PCR fragment was cloned into the EcORV site of pGEMV, from whence the insert was reclaimed using XhoI+XbaI and cloned into the XhoI+XbaI sites of vector pm3as (which contains a CMV promoter, the SV′t′ splice and early poly A signals, an Eptein-Barr viral origin of replication, and a hygromycin selectable marker). The resulting expression vector, called phchCRFR was transfected in 293EBNA cells and cells retaining the episome were selected in the presence of […] hygromycin. Cells surviving 4 weeks of selection in hygromycin were pooled, adapted to growth in suspension and used to generate membranes for the binding assay described below. Individual aliquots containing approximately 1×10^8 of the suspended cells were then centrifuged to form a pellet and frozen. For the binding assay a frozen pellet described above containing 293EBNA cells transfected with hCRFR1 receptors is homogenized in 10 mL of ice cold tissue buffer (50 mM HEPES buffer pH 7.0, containing 10 MM MgCl2, 2 mM EGTA, 1 μg/mL apotinin, 1 μg/mL leupeptin and 1 μg/mL pepstatin). The homoginate is centrifuged at 40,000×g for 12 min and the resulting pellet rehomogenized in 10 mL of tissue buffer. After another centrifugation at 40,000×g for 12 min, the pellet is resuspended to a protein concentration of 360 μg/mL to be used in the assay.
Binding assays are performed in 96 well plates; each well having a 300 μL capacity. To each well is added 50 μL of test drug dilutions (final concentration of drugs range from 10^−10–10^−5 M), 100 μL of ^125I-ovine-CRF (^125I-o-CRF) (final concentration 150 pM) and 150 μL of the cell homoginate described above. Plates are then allowed to incubate at room temperature for 2 hours before filtering the incubate over GF/F filters (presoaked with 0.3% polyethyleneimine) using an appropriate cell harvester. Filters are rinsed 2 times with ice cold assay buffer before removing individual filters and assessing them for radioactivity on a gamma counter.
Curves of the inhibition of ^125I-o-CRF binding to cell membranes at various dilutions of test drug are analyzed by the iterative curve fitting program LIGAND [P. J. Munson and D. Rodbard, Anal. Biochem., 107:220 (1980), which provides Ki values for inhibition which are then used to assess biological activity. […]
Messenger RNA was isolated from human hippocampus. The mRNA was isolated from human hippocampus. The mRNA was reverse transcribed using oligo (dt) 12–18 and the coding region was amplifies by PCR from start to stop codons. The resulting PCR fragment was cloned into the EcORV site of pGEMV, from whence the insert was reclaimed using XhoI+XbaI and cloned into the XhoI+XbaI sites of vector pm3as (which contains a CMV promoter, the SV′t′ splice and early poly A signals, an Eptein-Barr viral origin of replication, and a hygromycin selectable marker). The resulting expression vector, called phchCRFR was transfected in 293EBNA cells and cells retaining the episome were selected in the presence of […] hygromycin. Cells surviving 4 weeks of selection in hygromycin were pooled, adapted to growth in suspension and used to generate membranes for the binding assay described below. […]
A frozen pellet described above containing 293EBNA cells transfected with hCRFR1 receptors or the rat frontal cortex tissue dissected from frozen rat brains was prepared as the source of membranes expressing CRF1 receptors used in binding assays. […]

As to `COc1ccc(S(=O)(=O)c2cnc(C)nc2Nc2c(C)cc(C)cc2C)cc1` [Example 1, [5-(4-Methoxybenzenesulfonyl)-2-methylpyrimidin-4-yl]-(2,4,6-trimethylphenyl)-amine], the melting point (in general, the temperature of the solid-liquid transition) is 153 to 155 °C. For the same compound, the Ki – broadly, a dissociation constant, usually derived from enzyme kinetics or from competition with a known ligand – in data set [1] lay within 100 to 500 nM. For `Cc1cc(C)c(Nc2nc(C)ncc2S(=O)(=O)c2ccc(O)cc2)c(C)c1` [Example 2, 4-[2-Methyl-4-(2,4,6-trimethylphenylamino)-pyrimidine-5-sulfonyl]-phenol], in that order: 246 to 248 °C and 500 to 5000 nM. As for `CC(=O)Oc1ccc(S(=O)(=O)c2cnc(C)nc2Nc2c(C)cc(C)cc2C)cc1` [Example 3, Acetic acid 4-[2-methyl-4-(2,4,6-trimethylphenylamino)-pyrimidine-5-sulfonyl]-phenyl ester], the melting point lay in the range of 142 to 144 °C. The compound also displayed a Ki in data set [1] of 500 to 5000 nM. On to `Cc1cc(C)c(Nc2nc(C)ncc2S(=O)(=O)c2ccc(OCc3ccccc3)cc2)c(C)c1` [Example 4, [5-(4-Benzyloxybenzenesulfonyl)-2-methylpyrimidin-4-yl]-(2,4,6-trimethylphenyl)-amine], for which the melting point fell in the range of 166 to 168 °C. Moreover, in data set [1], the Ki was no more than 100 nM. `COc1ccc(Nc2nc(C)ncc2S(=O)(=O)c2ccc(OCc3ccccc3)cc2)c(C)c1` [Example 5, [5-(4-Benzyloxybenzenesulfonyl)-2-methylpyrimidin-4-yl]-(4-methoxy-2-methylphenyl)-amine] yielded a melting point of 110 to 114 °C. The compound also displayed a Ki in data set [1] of 100 to 500 nM. The compound `COc1ccc(Nc2nc(C)ncc2S(=O)(=O)c2ccc(OCc3ccccc3)cc2)c(C)n1` [Example 6, [5-(4-Benzyloxybenzenesulfonyl)-2-methylpyrimidin-4-yl]-(6-methoxy-2-methylpyridin-3-yl)-amine] registered a melting point of 160 to 165 °C. Besides, the activity result in data set [1] is listed as “d”.

Compound `Cc1cc(C)c(Nc2nc(C)ncc2S(=O)(=O)c2cccc(OCc3ccccc3)c2)c(C)c1` [Example 7, [5-(3-Benzyloxybenzenesulfonyl)-2-methylpyrimidin-4-yl]-(2,4,6-trimethylphenyl)-amine] yielded a melting point of 112 to 115 °C. In data set [1], the Ki lay within 100 to 500 nM. For `COc1ncc(S(=O)(=O)c2cccc(OCc3ccccc3)c2)c(Nc2c(C)cc(C)cc2C)n1` [Example 8, [5-(3-Benzyloxybenzenesulfonyl)-2-methoxypyrimidin-4-yl]-(2,4,6-trimethylphenyl)-amine], the activity result in data set [1] is recorded as “d”. As to `Cc1cc(C)c(Nc2nc(N(C)C)ncc2S(=O)(=O)c2cccc(OCc3ccccc3)c2)c(C)c1` [Example 9, 5-(3-Benzyloxybenzenesulfonyl)-N^2,N^2-dimethyl-N^4-(2,4,6-trimethylphenyl)-pyrimidine-2,4-diamine], the melting point lay in the range of 52 to 58 °C. Further, the Ki in data set [1] lay within 500 to 5000 nM. On the same counts, the results for `COc1ccccc1COc1ccc(S(=O)(=O)c2cnc(C)nc2Nc2c(C)cc(C)cc2C)cc1` [Example 10, {5-[4-(2-Methoxybenzyloxy)-benzenesulfonyl]-2-methylpyrimidin-4-yl}-(2,4,6-trimethylphenyl)-amine] are 200 to 202 °C and no more than 100 nM. `COc1cc(COc2ccc(S(=O)(=O)c3cnc(C)nc3Nc3c(C)cc(C)cc3C)cc2)cc(OC)c1` [Example 11, {5-[4-(3,5-Dimethoxybenzyloxy)-benzenesulfonyl]-2-methylpyrimidin-4-yl}-(2,4,6-trimethylphenyl)-amine] registered a Ki in data set [1] of no more than 100 nM. With `COc1ccc(Nc2nc(C)ncc2S(=O)(=O)c2ccc(OCc3ccccc3)cc2)c(OC)c1` [Example 12, [5-(4-Benzyloxybenzenesulfonyl)-2-methylpyrimidin-4-yl]-(2,4-dimethoxyphenyl)-amine], in data set [1], the activity entry is reported as “d”. Consider `COc1ccc(S(=O)(=O)c2cnc(C)nc2Cc2c(C)cc(C)cc2C)cc1` [Example 13, 5-(4-Methoxyoxybenzenesulfonyl)-2-methyl-4-(2,4,6-trimethylbenzyl)-pyrimidine], for which the melting point is 150 to 152 °C. This compound also showed a Ki in data set [1] of 100 to 500 nM. For `Cc1cc(C)c(Cc2nc(C)ncc2S(=O)(=O)c2ccc(OCc3ccccc3)cc2)c(C)c1` [Example 14, 5-(4-Benzyloxybenzenesulfonyl)-2-methyl-4-(2,4,6-trimethylbenzyl)-pyrimidine], in that order: 166 to 168 °C and no more than 100 nM. As to `Cc1cc(C)c(Nc2nc(C)ncc2S(=O)(=O)c2ccc(F)cc2)c(C)c1` [Example 15, [5-(4-Fluorobenzenesulfonyl)-2-methylpyrimidin-4-yl]-(2,4,6-trimethylphenyl)-amine], the melting point was 191 to 193 °C. In addition, the Ki in data set [1] lay in the range of 100 to 500 nM. In turn, `Cc1cc(C)c(Nc2nc(C)ncc2S(=O)(=O)c2ccc(N3CCOCC3)cc2)c(C)c1` [Example 16, [2-Methyl-5-(4-morpholin-4-yl-benzenesulfonyl)-pyrimidin-4-yl]-(2,4,6-trimethylphenyl)-amine] had a melting point of 221 to 223 °C. Also, the activity result in data set [1] is recorded as “d”. Consider `Cc1cc(C)c(Nc2nc(C)ncc2S(=O)(=O)c2ccc(N3CCN(C)CC3)cc2)c(C)c1` [Example 17, {2-Methyl-5-[4-(4-methylpiperazin-1-yl)-benzenesulfonyl]-pyrimidin-4-yl}-(2,4,6-trimethylphenyl)-amine], for which, in data set [1], the activity entry is recorded as “d”. Regarding `Cc1cc(C)c(Nc2nc(C)ncc2S(=O)(=O)c2ccc(-n3ccnc3)cc2)c(C)c1` [Example 18, [5-(4-Imidazol-1-yl-benzenesulfonyl)-2-methylpyrimidin-4-yl]-(2,4,6-trimethylphenyl)-amine], the melting point is 230 to 232 °C. Besides, in data set [1], the activity result is “d”. As for `Cc1cc(C)c(Nc2nc(C)ncc2S(=O)(=O)c2ccc(N3CCCC3)cc2)c(C)c1` [Example 19, [2-Methyl-5-(4-pyrrolidin-1-yl-benzenesulfonyl)-pyrimidin-4-yl]-(2,4,6-trimethylphenyl)-amine], the melting point lay in the range of 196 to 198 °C. The activity result in data set [1] was “d”. As for `Cc1cc(C)c(Nc2nc(C)ncc2S(=O)(=O)c2ccc(NCc3ccccc3)cc2)c(C)c1` [Example 20, [5-(4-Benzylaminobenzenesulfonyl)-2-methylpyrimidin-4-yl]-(2,4,6-trimethylphenyl)-amine], the melting point is 200 to 202 °C. In data set [1], this compound showed a Ki of 100 to 500 nM.

In turn, `Cc1cc(C)c(Nc2nc(C)ncc2S(=O)(=O)c2ccc(N(C)Cc3ccccc3)cc2)c(C)c1` [Example 21, {5-[4-(Benzylmethylamino)-benzenesulfonyl]-2-methylpyrimidin-4-yl}-(2,4,6-trimethylphenyl)-amine] had a melting point of 146 to 148 °C. The compound also displayed a Ki in data set [1] of no more than 100 nM.
